{"source": "patent US7598032B2", "about": "“Thermostable DNA polymerases incorporating nucleoside triphosphates labeled with fluorescent dyes” (Roche Molecular Systems, priority 1997, dated 2009)", "type_in_all_cases": "biochemical", "key": {"[1]": {"test": "standard PCR reaction with cyanine-labeled dNTPs", "settings": "compared with the wild-type enzyme", "text": "Although the examples provided herein use dideoxynucleotides labeled with fluorescein family dyes, the use of other unconventional nucleotides and fluorescent dyes is also within the scope of this invention. Other unconventional nucleotides include fluorescently-labled dNTPs, which can be used to label the products of DNA synthesis, and fluorescently-labled rNTPs, which can be used to label the primer extension products. Other dyes include other negatively charged fluorescent dyes, such as BODIPY, which are structurally and chemically similar to fluorescein. Other dyes also include cyanine dyes. Cyanine-labeled dNTPs were added to a standard PCR reaction which included a Taq DNA polymerase with the […] mutation (and a G46D mutation). […] Thus, in this aspect, a method of labeling DNA of the invention uses a native or mutant polymerase of the invention in combination with a nucleotide labeled with either a negatively charged fluorescent dye or a cyanine dye. In one embodiment, the DNA labeling method of the invention comprises: […]"}, "[2]": {"tested_on": "primer annealed to an M13 template", "test": "Extension rate assay", "settings": "75° C", "description": "The extension rate of G46D F667Y Taq and G46D F667Y E681K Taq were determined using an extension rate assay. In this experiment, the enzymes were used to extend a primer annealed to an M13 template in the presence of [α-^33P]dCTP. The extension reactions were denatured and the products analyzed by denaturing agarose gel electrophoresis.\nThe assay was performed as previously described (Lawyer et al., 1989, J. Biol. Chem. 264:6427) including the following modifications. The assay mixture was composed so the final concentration was 50 mM Bicine pH 8.3, 25° C., 2.5 mM MgCl2, 1 mM β-mercaptoethanol, 200 μM each of dATP, dGTP and dTTP (Perkin-Elmer), 100 μM dCTP (Perkin-Elmer) containing [α-^33P]dCTP (New England Nuclear, Boston, Mass.). M13 mp18 (Perkin-Elmer) was annealed to primer DG48, (SEQ ID NO: 11), and the equivalent of 0.085 pmoles of the annealed template was added to the assay mixture for each reaction. Forty-five μl of the assay mixture with template DNA was added to each of fourteen 0.5 ml eppendorf tubes. Each tube was preincubated at 75° C. for at least 30 seconds before the start of the polymerase reaction.\nPolymerization was initiated in six of the fourteen assay tubes with 5 μl of G46D F667Y Taq DNA polymerase (2.5 units) or G46D F667Y E681K Taq DNA polymerase (1.25 units). Both enzymes were prepared as in Example I and the concentration used represents a predetermined excess amount of enzyme for the amount of substrate in the assay. As a control for the level of background, the remaining negative control was initiated with enzyme dilution buffer rather than polymerase. All reaction tubes were immediately vortexed briefly and incubated at 75° C. Two of the six tubes containing G46D F667Y Taq DNA polymerase were incubated 3 minutes, two for 6 minutes and two for 10 minutes. Similarly, two of the tubes started with G46D F667Y E681K Taq DNA polymerase were incubated for 30 seconds, two for 1 minute and two for 2 minutes. The control tubes were incubated for 3 minutes. The reactions were stopped by addition of 10 μl 60 mM EDTA and stored at 0° C.\nFor each reaction, a 25 μl aliquot of the 60 μl reaction was diluted with 1 ml 2 mM EDTA, 50 μg/ml sheared salmon sperm DNA as a carrier. The DNA was precipitated with TCA using standard procedures and collected on GF/C filter discs (Whatman). The amount of incorporated [α-^33P]dCMP was determined for each sample.\nThe remaining 35 μl of each duplicated were combined and the 70 μl sample was ethanol precipitated, dried and resuspended in 50 mM NaOH, 1 mM EDTA. Aliquots were removed from these samples such that an equal number of α-^33P] counts were taken from each. These aliquots were loaded on an 0.9% alkaline agarose gel, electrophoresed, dried and autoradiographed as previously described (Maniatis et al., 1982, In Molecular Cloning: A Laboratory Manual, Cold Spring Harbor Laboratory, Cold Spring Harbor, N.Y.) Bacteriophage lambda DNA cut with restriction enzyme HindIII (BRL) and 5′ end-labeled with [^32P] was used as a molecular weight standard.\nThe length in base pairs of the extension product in each sample was determined by comparison of the migration distance of each sample with the distance migrated by the lambda DNA size standard. The number of base pairs in each product was divided by the number of seconds each extension reaction incubated to give the extension rate as shown below."}, "[3]": {"tested_on": "primer DG48 annealed to M13 mp18 template", "test": "limiting template, primer extension competition assay (ddNTP incorporation assay)", "settings": "ratio of concentrations for 50% inhibition by Zowie-ddCTP vs. ddCTP", "description": "The ability of the enzymes of this invention to efficiently incorporate nucleotides labeled with fluorescein family dyes is measured by ddNTP incorporation assays. One such assay is a primer extension competition assay conducted under conditions of limiting template. In this assay, a primer DG48 (5′-[…]), (SEQ ID NO: 11), bound to M13 mp18 template (Innis et al., 1988, Proc. Natl. Acad. Sci. USA 85:9436) is extended in the presence of [α-^33P]dCTP and excess enzyme with various levels of a fluorescently labeled ddNTP, Zowie-ddCTP. Because the incorporation of a ddCTP residue terminates the extension reaction, the more readily a DNA polymerase incorporates a ddCTP into an extended primer, the less [α-^33P]dCTP can be incorporated. Thus, as the efficiency of fluorescently labeled ddCTP incorporation increases, the extent of inhibition of DNA synthesis is increased. The reactions were also performed with various levels of an unlabeled ddCTP. […]\nThe relative abilities of G46D F667Y Taq, G46D F667Y E681K Taq and F730Y Tma30 DNA polymerases to incorporate a fluorescein dye family-labeled ddCTP were compared by use of a limiting template, primer extension competition assay. […] In this competition assay, because the incorporation of a ddCTP terminates the extension reaction, the more readily the polymerase incorporates a ddCTP into an extended primer, the less [α-^33P]dCTP can be incorporated. […]"}, "[4]": {"test": "screen of transformants for incorporation of [α-32P]Tet-dCTP", "settings": "in comparison to the wild-type enzyme", "text": "The C-terminal amino acid portion of Taq DNA polymerase encodes the polymerase active site domain (Lawyer et al., 1993, PCR Methods and Applications 2:275-287, Freemont et al., 1986, Proteins: Structure, Function and Genetics 1:66-73, which are incorporated herein by reference). A DNA fragment containing this region was isolated from the full-length Taq gene and mutagenized by PCR amplification in the presence of manganese (Leung et al, 1989, Technique 1(1):11-15). For this example, all restriction enzymes were purchased from New England Biolabs, Beverly Mass. The mutagenized fragments were digested with PstI and BglII and cloned into a Taq expression plasmid, pLK102, which had been digested with PstI and BglII. Plasmid pLK102 is a derivative of pLK101 in which the 900 bp PstI-BglII fragment is replaced by a short PstI-BglII linker. […]\nThe mutagenized Taq expression plasmid of mutant CS1 was digested with HindIII/NheI and the resulting restriction fragment was subcloned into the wild-type gene of pLK101, replacing the unmutagenized HindIII/NheI fragment, to determine which portion of the mutagenized Taq polymerase gene was responsible for the altered phenotype. […] Subsequent subclone analysis determined that the mutation was located in the 265 bp BamHI-NheI fragment."}}}
{"substance": "G46D E681K Taq: thermostable Taq DNA polymerase with G46D and E681K mutations, encoded by plasmid pLK112", "values": [{"measurement": "incorporation of cyanine-labeled dNTPs into amplification products", "setting": "[1]", "value": "higher than for the wild-type enzyme"}]}
{"substance": "G46D F667Y Taq: Taq DNA polymerase having an F667Y mutation and a G46D mutation; known as AmpliTaq, FS [reference compound]", "values": [{"measurement": "extension rate, Base Pairs/Sec", "setting": "[2]; Time 3 min.", "value": 12.5, "unit": "Base Pairs/Sec"}, {"measurement": "extension rate, Base Pairs/Sec", "setting": "[2]; Time 6 min.", "value": 12.2, "unit": "Base Pairs/Sec"}, {"measurement": "extension rate, Base Pairs/Sec", "setting": "[2]; Time 10 min.", "value": 11.8, "unit": "Base Pairs/Sec"}, {"measurement": "Zowie-ddCTP/ddCTP (ratio of concentrations for 50% inhibition)", "setting": "[3]", "value": 25}]}
{"substance": "Mutant CS1: mutagenized Taq DNA polymerase clone (plasmid pCS1) carrying the E681K mutation", "values": [{"measurement": "ability to incorporate [α-32P]Tet-dCTP", "setting": "[4]", "value": "more efficiently incorporate"}]}
